Experimental data taken from article PMC3196554 (Chemical research in toxicology, 2010).
Like-named read-outs stand apart in the source and are kept apart here.

How the values were obtained:
[1] = cited from earlier work
[2] = for Amount in urine collected for 10 h after consumption of cooked beef: Mean ± SD of 3 independent measurements; for % Dose in urine collected for 10 h after consumption of cooked beef: metabolites as % of dose of parent MeIQx or PhIP
P450 1A2 [3] = conditions: subjects given furafylline prior to cooked beef; cited from earlier work
[4] = 14C-PhIP; cited from earlier work
P450 1A2 [5] = conditions: human hepatocytes pretreated with furafylline; cited from earlier work

Cn1c(N)nc2ncc(-c3ccccc3)cc21 [PhIP, 2-amino-1-methyl-6-phenylimidazo[4,5-b]pyridine]
pKa [1]: 5.65 | Amount in urine collected for 10 h after consumption of cooked beef ([2]; Subject S-001): 37.1 ± 3.3 ng | % Dose in urine collected for 10 h after consumption of cooked beef ([2]; Subject S-001): 0.8 % Dose | Amount in urine collected for 10 h after consumption of cooked beef ([2]; Subject S-003): 6.5 ± 1.1 ng | % Dose in urine collected for 10 h after consumption of cooked beef ([2]; Subject S-003): 0.1 % Dose | Amount in urine collected for 10 h after consumption of cooked beef ([2]; Subject S-005): 11.4 ± 0.9 ng | % Dose in urine collected for 10 h after consumption of cooked beef ([2]; Subject S-005): 0.2 % Dose | Amount in urine collected for 10 h after consumption of cooked beef ([2]; Subject S-008): 9.5 ± 0.6 ng | % Dose in urine collected for 10 h after consumption of cooked beef ([2]; Subject S-008): 0.2 % Dose | Amount in urine collected for 10 h after consumption of cooked beef ([2]; Subject S-009): 18.5 ± 1.6 ng | % Dose in urine collected for 10 h after consumption of cooked beef ([2]; Subject S-009): 0.4 % Dose | Amount in urine collected for 10 h after consumption of cooked beef ([2]; Subject S-012): 17.0 ± 0.7 ng | % Dose in urine collected for 10 h after consumption of cooked beef ([2]; Subject S-012): 0.3 % Dose | Amount in urine collected for 10 h after consumption of cooked beef ([2]; Subject S-013): 14.1 ± 1.2 ng | % Dose in urine collected for 10 h after consumption of cooked beef ([2]; Subject S-013): 0.3 % Dose | Amount in urine collected for 10 h after consumption of cooked beef ([2]; Subject S-014): 8.9 ± 0.6 ng | % Dose in urine collected for 10 h after consumption of cooked beef ([2]; Subject S-014): 0.2 % Dose | Amount in urine collected for 10 h after consumption of cooked beef ([2]; Subject S-015): 8.2 ± 1.0 ng | % Dose in urine collected for 10 h after consumption of cooked beef ([2]; Subject S-015): 0.2 % Dose | Amount in urine collected for 10 h after consumption of cooked beef ([2]; Subject S-020): 18.9 ± 1.6 ng | % Dose in urine collected for 10 h after consumption of cooked beef ([2]; Subject S-020): 0.4 % Dose | Share of elimination accounted for by P450 1A2 (P450 1A2 [3]): 70% | Proportion of the dose eliminated in urine within 24 h as isomeric HON-PhIP-N-glucuronide conjugates [4]: approximately 50%

Cc1nc2c([nH]1)c(=O)n(C)c(=O)n2Cc1ccco1 [furafylline]
Inhibition of formation of 8-CH2OH-IQx, IQx-8-COOH and glucuronide conjugates of HONH-MeIQx and HONH-PhIP (P450 1A2 [5]): inhibited to a similar degree
